Patent US11345694B2, “Antibacterial compounds” (DISCUVA LTD., priority 2017, dated 2022)
pIC50: −log10 of the molar value. Converted amounts (≈) assume the structure as drawn.

Tests used:
[1] = system: human hepatocarcinoma cell line ATCC HB-8065 (HepG2); test: Human cell viability (CellTiter-Glo); type: cell-based; details: Homo sapiens; HepG2 cells, 24 h incubation, CellTiter-Glo luminescence, 0.2-100 μM; read-out: IC50 values against the HepG2 cell line
Protocol: Compounds are assessed for potential non-specific cytotoxic effects against the human hepatocarcinoma cell line ATCC HB-8065 (HepG2). HepG2 cells are seeded at 20,000 cells/well in 96-well microtitre plates in minimal essential medium (MEM) supplemented with a final concentration of 10% FBS. After 24 h, compound dilutions are prepared in MEM supplemented with a final concentration of 1% FBS, and added to the cells. Compounds are tested in two-fold serial dilutions over a final concentration range of 0.2-100 μM in a final DMSO concentration of 1% vol/vol. Thioridazine is used as a positive control. Cells are incubated with compound at 37° C. and 5% CO2 for a further 24 h, after which time the CellTiter-Glo reagent (Promega) is added. Luminescence is measured on a Perkin Elmer Envision plate reader. Data are analysed using a 4 parameter logistic regression to determine the concentration of compound that inhibits cell viability by fifty percent (IC50).

[2] = system: K. pneumoniae NCTC 13438 (KP1); test: MIC broth microdilution; type: cell-based, Klebsiella pneumoniae; details: Klebsiella pneumoniae, NCTC13438
Protocol: (§1) Minimum Inhibitory Concentrations (MICs) versus planktonic bacteria are determined by the broth microdilution procedure according to the guidelines of the Clinical and Laboratory Standards Institute (Clinical and Laboratory Standards Institute. Methods for Dilution Antimicrobial Susceptibility Tests for Bacteria That Grow Aerobically; Approved Standard-tenth Edition. CLSI document M07-A10, 2015). The broth dilution method involves a two-fold serial dilution of compounds in 96-well microtitre plates, giving a final concentration range of 0.39-200 μM and a maximum final concentration of 2% DMSO. The bacterial strains tested include Escherichia coli K12 (EC), E. coli NCTC 13441 (UPEC), Staphylococcus aureus ATCC 35556 (SA), Acinetobacter baumannii ATCC 17978 (AB), Pseudomonas aeruginosa ATCC 33359 (PA), Enterobacter cloacae DSM 30054 (Ed), Serratia marcescens SL1344 (Sm), Salmonella typhimurium XNAA5 (St), Klebsiella pneumoniae ATCC 10031 (KP2), K. pneumoniae NCTC 13438 (KP1), K. pneumoniae ATCC 700603 (KP3), Klebsiella pneumoniae ATCC 51504 (KP4), K. pneumoniae H154680676 (KP5), K. pneumoniae H154020667 (KP6), K. pneumoniae H154640784 (KP7), K. pneumoniae H154600588 (KP8), K. pneumoniae H154300688 (KP9), K. pneumoniae H151440671 (KP10). Strains are grown in cation-adjusted Müller-Hinton broth or on Luria Bertoni agar at 37° C. in an ambient atmosphere. The MIC is determined as the lowest concentration of compound that inhibits growth following a 20-24 hour incubation period.

[3] = system: Acinetobacter baumannii ATCC 17978 (AB); test: MIC broth microdilution; type: cell-based; details: ATCC17978
Protocol: as §1

[4] = system: Escherichia coli K12 (EC); test: MIC broth microdilution; type: cell-based
Protocol: as §1

[5] = system: Pseudomonas aeruginosa ATCC 33359 (PA); test: MIC broth microdilution; type: cell-based; details: ATCC33359
Protocol: as §1

[6] = system: Klebsiella pneumoniae ATCC 10031 (KP2); test: MIC broth microdilution; type: cell-based; details: ATCC10031
Protocol: as §1

[7] = system: Staphylococcus aureus ATCC 35556 (SA); test: MIC broth microdilution; type: cell-based; details: ATCC35556
Protocol: as §1

[8] = system: E. coli NCTC 13441 (UPEC); test: MIC broth microdilution; type: cell-based, Escherichia coli; details: Escherichia coli, NCTC13441
Protocol: as §1

Compound	pIC50 [1]	MIC [2]	MIC [3]	MIC [4]	MIC [5]	MIC [6]	MIC [7]	MIC [8]
Cc1cc(-c2[nH]c(=S)[nH]c2-c2ccc3c(c2)OCCO3)ccn1 [Example 81, 4-(2,3-Dihydrobenzo[b][1,4]dioxin-6-yl)-5-(2-methylpyridin-4-yl)-1,3-dihydro-2H-imidazole-2-thione]	< 4.00	> 100 µM	> 100 µM	10 to 100 µM (≈ 3.25 to 32.5 µg/mL)	> 100 µM	≤ 1 µM	> 100 µM	10 to 100 µM (≈ 3.25 to 32.5 µg/mL)
Cc1cc(-c2[nH]c(N)nc2-c2ccc3oc(C)nc3c2)ccn1 [Example 37, 4-(2-Methylbenzo[d]oxazol-5-yl)-5-(2-methylpyridin-4-yl)-1H-imidazol-2-amine]	< 4.00	10 to 100 µM (≈ 3.05 to 30.5 µg/mL)	> 100 µM	1 to 10 µM (≈ 0.305 to 3.05 µg/mL)	> 100 µM	≤ 1 µM	> 100 µM	1 to 10 µM (≈ 0.305 to 3.05 µg/mL)
Cc1cc(-c2[nH]c(N)nc2-c2ccc3c(c2)NCC(C)O3)ccn1 (stereo not drawn) [Example 34, 4-(2-Methyl-3,4-dihydro-2H-benzo[b][1,4]oxazin-6-yl)-5-(2-methylpyridin-4-yl)-1H-imidazol-2-amine]	< 4.00	1 to 10 µM (≈ 0.321 to 3.21 µg/mL)	> 100 µM	1 to 10 µM (≈ 0.321 to 3.21 µg/mL)	> 100 µM	≤ 1 µM	> 100 µM	1 to 10 µM (≈ 0.321 to 3.21 µg/mL)
Nc1nc(-c2ccc3c(c2)OCCO3)c(-c2cccnc2)[nH]1 [Example 22, 4-(2,3-Dihydrobenzo[b][1,4]dioxin-6-yl)-5-(pyridin-3-yl)-1H-imidazol-2-amine]	–	> 100 µM	> 100 µM	> 100 µM	> 100 µM	1 to 10 µM (≈ 0.294 to 2.94 µg/mL)	> 100 µM	> 100 µM
CNc1nc(-c2ccc3c(c2)NCCO3)c(-c2ccnc(C)c2)[nH]1 [Example 78, 4-(3,4-Dihydro-2H-benzo[b][1,4]oxazin-6-yl)-N-methyl-5-(2-methylpyridin-4-yl)-1H-imidazol-2-amine]	–	10 to 100 µM (≈ 3.21 to 32.1 µg/mL)	> 100 µM	1 to 10 µM (≈ 0.321 to 3.21 µg/mL)	> 100 µM	≤ 1 µM	> 100 µM	1 to 10 µM (≈ 0.321 to 3.21 µg/mL)
Cc1cc(-c2[nH]c(N(C)C)nc2-c2ccc3c(c2)NCCO3)ccn1 [Example 79, 4-(3,4-Dihydro-2H-benzo[b][1,4]oxazin-6-yl)-N,N-dimethyl-5-(2-methylpyridin-4-yl)-1H-imidazol-2-amine]	–	> 100 µM	> 100 µM	10 to 100 µM (≈ 3.35 to 33.5 µg/mL)	> 100 µM	1 to 10 µM (≈ 0.335 to 3.35 µg/mL)	> 100 µM	1 to 10 µM (≈ 0.335 to 3.35 µg/mL)
Cc1cc(-c2c(-c3ccc4c(c3)OCCO4)nc(N)n2C)ccn1 [Example 73, 4-(2,3-dihydrobenzo[b][1,4]dioxin-6-yl)-1-methyl-5-(2-methylpyridin-4-yl)-1H-imidazol-2-amine]	–	> 100 µM	> 100 µM	> 100 µM	> 100 µM	> 100 µM	> 100 µM	> 100 µM
CC(=O)Nc1nc(-c2ccc3c(c2)OCCO3)c(-c2ccnc(C)c2)[nH]1 [Example 72, N-(4-(2,3-Dihydrobenzo[b][1,4]dioxin-6-yl)-5-(2-methylpyridin-4-yl)-1H-imidazol-2-yl)acetamide]	–	> 100 µM	> 100 µM	> 100 µM	> 100 µM	1 to 10 µM (≈ 0.35 to 3.5 µg/mL)	> 100 µM	> 100 µM
Cc1cc(-c2[nH]c(N)nc2-c2ccc3c(c2)N(CC2CC2)C(=O)CO3)ccn1 [Example 67, 6-(2-Amino-4-(2-methylpyridin-4-yl)-1H-imidazol-5-yl)-4-(cyclopropylmethyl)-2H-benzo[b][1,4]oxazin-3(4H)-one]	–	10 to 100 µM (≈ 3.75 to 37.5 µg/mL)	> 100 µM	1 to 10 µM (≈ 0.375 to 3.75 µg/mL)	> 100 µM	≤ 1 µM	> 100 µM	1 to 10 µM (≈ 0.375 to 3.75 µg/mL)
Cc1cc(-c2[nH]c(=O)[nH]c2-c2ccc3c(c2)OCCO3)ccn1 [Example 82, 4-(2,3-Dihydrobenzo[b][1,4]dioxin-6-yl)-5-(2-methylpyridin-4-yl)-1,3-dihydro-2H-imidazol-2-one]	–	> 100 µM	> 100 µM	10 to 100 µM (≈ 3.09 to 30.9 µg/mL)	> 100 µM	≤ 1 µM	> 100 µM	10 to 100 µM (≈ 3.09 to 30.9 µg/mL)
Cc1cc(-c2nc(N)[nH]c2-c2ccc3c(c2)N(CCOCCO)C(=O)CO3)ccn1 [Example 70, 6-(2-Amino-4-(2-methylpyridin-4-yl)-1H-imidazol-5-yl)-4-(2-(2-hydroxyethoxy)ethyl)-2H-benzo[b][1,4]oxazin-3(4H)-one]	–	10 to 100 µM (≈ 4.09 to 40.9 µg/mL)	> 100 µM	1 to 10 µM (≈ 0.409 to 4.09 µg/mL)	> 100 µM	≤ 1 µM	> 100 µM	1 to 10 µM (≈ 0.409 to 4.09 µg/mL)
Cc1cc(-c2[nH]c(N)nc2-c2ccc3c(c2)N(CCOCCO)CCO3)ccn1 [Example 95, 2-(2-(6-(2-Amino-5-(2-methylpyridin-4-yl)-1H-imidazol-4-y1)-2,3-dihydro-4H-benzo[b][1,4]oxazin-4-yl)ethoxy)ethan-1-ol]	–	10 to 100 µM (≈ 3.95 to 39.5 µg/mL)	> 100 µM	1 to 10 µM (≈ 0.395 to 3.95 µg/mL)	> 100 µM	≤ 1 µM	> 100 µM	1 to 10 µM (≈ 0.395 to 3.95 µg/mL)
Cc1cc(-c2[nH]c(N)nc2-c2ccc3c(c2)N(C2CCCC2)C(=O)CO3)ccn1 [Example 69, 6-(2-Amino-4-(2-methylpyridin-4-yl)-1H-imidazol-5-yl)-4-cyclopentyl-2H-benzo[b][1,4]oxazin-3(4H)-one]	–	10 to 100 µM (≈ 3.89 to 38.9 µg/mL)	> 100 µM	1 to 10 µM (≈ 0.389 to 3.89 µg/mL)	> 100 µM	≤ 1 µM	> 100 µM	1 to 10 µM (≈ 0.389 to 3.89 µg/mL)
Cc1cc(-c2[nH]c(N)nc2-c2ccc3c(c2)N(C(C)C)C(=O)CO3)ccn1 [Example 68, 6-(2-Amino-4-(2-methylpyridin-4-yl)-1H-imidazol-5-yl)-4-isopropyl-2H-benzo[b][1,4]oxazin-3(4H)-one]	–	10 to 100 µM (≈ 3.63 to 36.3 µg/mL)	> 100 µM	1 to 10 µM (≈ 0.363 to 3.63 µg/mL)	> 100 µM	≤ 1 µM	> 100 µM	1 to 10 µM (≈ 0.363 to 3.63 µg/mL)
Nc1nc(-c2ccncn2)c(-c2ccc3c(c2)OCCO3)[nH]1 [Example 30]	–	> 100 µM	> 100 µM	10 to 100 µM (≈ 2.95 to 29.5 µg/mL)	> 100 µM	1 to 10 µM (≈ 0.295 to 2.95 µg/mL)	> 100 µM	10 to 100 µM (≈ 2.95 to 29.5 µg/mL)
